Measurements as given in ChEMBL document CHEMBL1151896, “3D QSAR of novel estrogen-RGD peptide conjugates: getting insight into structural dependence of anti-osteoporosis activity and side effect of estrogen in ERT” (Bioorg Med Chem, 2009).
Numbered stars: 1 amine (or outer) side, 2 acyl side, 3 side chain; on linkers, the order of the positions; unused ones are H or OH. Bridge positions count the residues as written; N and C are the ends. Peptide text beside a SMILES is read from it. I, II: the chains in the order shown. Estradiol(3-OCH2CO,17-OSuc) = C[C@]12CC[C@@H]3c4ccc(OCC(=O)[*:1])cc4CC[C@H]3[C@@H]1CC[C@@H]2OC(=O)CCC(=O)[*:2]

Experiments:
[1] = test system: Mus musculus; test: Toxicity in ovariectomized ICR mouse assessed as effect on spleen weight at 110.3 nmol/kg, po after 4 weeks; assay type: organism-based; conditions: in vivo, 672 h
[2] = test system: Mus musculus; test: Toxicity in ovariectomized ICR mouse assessed as tail bleeding time at 110.3 nmol/kg, po for 30 mins; assay type: organism-based; conditions: in vivo, 0.5 h
[3] = test system: Mus musculus; test: Toxicity in ovariectomized ICR mouse assessed as tail bleeding time at 110.3 nmol/kg, po for 90 mins; assay type: organism-based; conditions: in vivo, 1.5 h
[4] = test system: Mus musculus; test: Toxicity in ovariectomized ICR mouse assessed as effect on body weight at 110.3 nmol/kg, po after 4 weeks; assay type: organism-based; conditions: in vivo, 672 h
[5] = test system: Mus musculus; test: Toxicity in ovariectomized ICR mouse assessed as effect on liver weight at 110.3 nmol/kg, po after 4 weeks; assay type: organism-based; conditions: in vivo, 672 h
[6] = test system: Mus musculus; test: Toxicity in ovariectomized ICR mouse assessed as effect on kidney weight at 110.3 nmol/kg, po after 4 weeks; assay type: organism-based; conditions: in vivo, 672 h
[7] = test system: Mus musculus; test: Toxicity in ovariectomized ICR mouse assessed as effect on lung weight at 110.3 nmol/kg, po after 4 weeks; assay type: organism-based; conditions: in vivo, 672 h
[8] = test system: Mus musculus; test: Antiosteoporosis activity against ovariectomized ICR mouse assessed as serum calcium level at 110.3 nmol/kg, po after 30 mins; assay type: functional
[9] = test system: Mus musculus; test: Antiosteoporosis activity against ovariectomized ICR mouse assessed as femur calcium content at 110.3 nmol/kg, po after 30 mins; assay type: functional
[10] = test system: Mus musculus; test: Antiosteoporosis activity against ovariectomized ICR mouse assessed as serum ALP activity at 110.3 nmol/kg, po after 30 mins; assay type: functional
[11] = test system: Mus musculus; test: Antiosteoporosis activity against ovariectomized ICR mouse assessed as dry femur weight at 110.3 nmol/kg, po after 30 mins; assay type: functional
[12] = test system: Mus musculus; test: Antiosteoporosis activity against ovariectomized ICR mouse assessed as serum phosphorous level at 110.3 nmol/kg, po after 30 mins; assay type: functional
[13] = test system: Mus musculus; test: Antiosteoporosis activity against ovariectomized ICR mouse assessed as femur ash weight at 110.3 nmol/kg, po after 30 mins; assay type: functional
[14] = test system: Mus musculus; test: Antiosteoporosis activity against ovariectomized ICR mouse assessed as mineral content at 110.3 nmol/kg, po after 30 mins; assay type: functional
[15] = test system: Mus musculus; test: Antiosteoporosis activity against ovariectomized ICR mouse assessed as femur length at 110.3 nmol/kg, po after 30 mins; assay type: functional
[16] = test system: Mus musculus; test: Toxicity in ovariectomized ICR mouse assessed as change in uterine weight at 110.3 nmol/kg, po after 4 weeks; assay type: organism-based; conditions: in vivo, 672 h
[17] = test system: Mus musculus; test: Antiosteoporosis activity against ovariectomized ICR mouse assessed as femur phosphorous content at 110.3 nmol/kg, po after 30 mins; assay type: functional

SMILES	Activity [1]	Activity [2] [s]	Activity [3] [s]	Activity [4]	Activity [5]	Activity [6]	Activity [7]	Activity [8] [mM]	Activity [9] [%]	Activity [10] [U/L]	Activity [11] [mg]	Activity [12] [mM]	Activity [13] [mg]	Activity [14] [%]	Activity [15] [cm]	Activity [16] [g]	Activity [17] [%]
C[C@]12CC[C@@H]3c4ccc(OCC(=O)N[C@@H](CCCNC(=N)N)C(=O)NCC(=O)N[C@@H](CC(=O)O)C(=O)N[C@@H](Cc5ccccc5)C(=O)O)cc4CC[C@H]3[C@@H]1CC[C@@H]2OC(=O)CCC(=O)N[C@@H](CCCNC(=N)N)C(=O)NCC(=O)N[C@@H](CC(=O)O)C(=O)N[C@@H](Cc1ccccc1)C(=O)O (I: RGDF-OH / II: RGDF-OH; linker I:N-II:N via Estradiol(3-OCH2CO,17-OSuc))	Non-toxic	522	524	Non-toxic	Non-toxic	Non-toxic	Non-toxic	3.19	61.17	15.8	55.46	3.09	35.22	0.61	1.62	0.05	21.21
C[C@]12CC[C@@H]3c4ccc(OCC(=O)N[C@@H](CCCNC(=N)N)C(=O)NCC(=O)N[C@@H](CC(=O)O)C(=O)N[C@@H](CO)C(=O)O)cc4CC[C@H]3[C@@H]1CC[C@@H]2OC(=O)CCC(=O)N[C@@H](CCCNC(=N)N)C(=O)NCC(=O)N[C@@H](CC(=O)O)C(=O)N[C@@H](CO)C(=O)O (I: RGDS-OH / II: RGDS-OH; linker I:N-II:N via Estradiol(3-OCH2CO,17-OSuc))	Non-toxic	580	570	Non-toxic	Non-toxic	Non-toxic	Non-toxic	3.22	61.05	19.61	55.22	2.99	35.6	0.62	1.64	0.05	20.35
CC(C)[C@H](NC(=O)[C@H](CC(=O)O)NC(=O)CNC(=O)[C@H](CCCNC(=N)N)NC(=O)CCC(=O)O[C@H]1CC[C@H]2[C@@H]3CCc4cc(OCC(=O)N[C@@H](CCCNC(=N)N)C(=O)NCC(=O)N[C@@H](CC(=O)O)C(=O)N[C@H](C(=O)O)C(C)C)ccc4[C@H]3CC[C@]12C)C(=O)O (I: RGDV-OH / II: RGDV-OH; linker I:N-II:N via Estradiol(3-OCH2CO,17-OSuc))	Non-toxic	591	532	Non-toxic	Non-toxic	Non-toxic	Non-toxic	3.17	61.56	19.94	56.46	2.84	35.75	0.62	1.66	0.059	20.94
